Measured values taken from patent publication US4515811A, “Process for the resolution of d,1 2-(6-methoxy-2-naphthyl)propionic acid” (Syntex Corporation, priority 1980, dated 1985).
Where a name gives a salt, the structure may show the parent alone. Read-outs that look alike come from different tables or passages of the source.

Assays:
[1] = test system: carrageenin-induced paw inflammation in the rat; details: female rats, relative to phenylbutazone = 1, molar basis
Experimental: The anti-inflammatory activity of each of the compounds listed below is compared with the activity of phenylbutazone by means of the carrageenin-induced rat paw inflammation test described below.
TEST FOR ANTI-INFLAMMATORY ACTIVITY UTILIZING CARRAGEENIN-INDUCED PAW INFLAMMATION IN THE RAT
Materials and Methods--Female rats weighing 80-90 grams are used. The test materials are given at hour 0 orally by gavage in 1 ml. aqueous vehicle. At hour 1, 0.05 ml. of a 1% solution (in 0.9% NaCl) of carrageenin is injected into the right hind paw. This injection causes an inflammation of the paw. The rats are sacrificed at hour 4, at which time both hind paws are removed and weighed separately.
End point: % increase in paw size calculated as follows: [formula]

[2] = Solubility of resolving agent in water; type: physicochemical
[3] = Example 32, oral gavage at hour 0, carrageenin at hour 1, sacrificed hour 4
[4] = Example 33, test of Example 32 repeated, oral

| Structure (SMILES) | Oral Anti-Inflammatory Activity (on a molar equivalent basis) (Phenylbutazone = 1) [1, 3] | further results |
| --- | --- | --- |
| COc1ccc2cc([C@H](C)C(=O)O)ccc2c1 [N-n-octyl-D-glucamine salt of d 2-(6-methoxy-2-naphthyl)prop] [N-n-octyl-D-glucamine salt of d 2-(6-methoxy-2-naphthyl)propionic acid] | 17 |  |
| COc1ccc2cc([C@H](C)C(=O)O)ccc2c1 [N-n-butyl-D-glucamine salt of d 2-(6-methoxy-2-naphthyl)prop] [N-n-butyl-D-glucamine salt of d 2-(6-methoxy-2-naphthyl)propionic acid] | 5 |  |
| COc1ccc2cc([C@H](C)C(=O)O)ccc2c1 [N-cyclohexyl-D-glucamine salt of d 2-(6-methoxy-2-naphthyl)p] [N-cyclohexyl-D-glucamine salt of d 2-(6-methoxy-2-naphthyl)propionic acid] | 11 |  |
| COc1ccc2cc([C@H](C)C(=O)O)ccc2c1 [N-cyclopropyl-D-glucamine salt of d 2-(6-methoxy-2-naphthyl)] [N-cyclopropyl-D-glucamine salt of d 2-(6-methoxy-2-naphthyl)propionic acid] |  | Oral Anti-Inflammatory Activity (on a molar equivalent basis) (Phenylbutazone = 1) [1, 4]: 9 |
| COc1ccc2cc([C@H](C)C(=O)O)ccc2c1 [N-ethyl-D-glucamine salt of d 2-(6-methoxy-2-naphthyl)propio] [N-ethyl-D-glucamine salt of d 2-(6-methoxy-2-naphthyl)propionic acid] | 17 |  |
| COc1ccc2cc([C@H](C)C(=O)O)ccc2c1 [N-cyclooctyl-D-glucamine salt of d 2-(6-methoxy-2-naphthyl)p] [N-cyclooctyl-D-glucamine salt of d 2-(6-methoxy-2-naphthyl)propionic acid] |  | Oral Anti-Inflammatory Activity (on a molar equivalent basis) (Phenylbutazone = 1) [1, 4]: 20 |
| COc1ccc2cc([C@H](C)C(=O)O)ccc2c1 [N-n-octadecyl-D-glucamine salt of d 2-(6-methoxy-2-naphthyl)] [N-n-octadecyl-D-glucamine salt of d 2-(6-methoxy-2-naphthyl)propionic acid] | 7 |  |
| COc1ccc2cc([C@H](C)C(=O)O)ccc2c1 [N-n-propyl-D-glucamine salt of d 2-(6-methoxy-2-naphthyl)pro] [N-n-propyl-D-glucamine salt of d 2-(6-methoxy-2-naphthyl)propionic acid] | 20 |  |
| CCCCCCCCNC[C@H](O)[C@@H](O)[C@H](O)[C@H](O)CO [N-n-octyl-D-glucamine] |  | solubility in water (in words) [2]: substantially insoluble in water |
